≈ marks a conversion by molar mass, not a printed value. Calls of active or inactive are those of the source. No cut-off for these calls is given here.
What was measured:
Aspergillus terreus = assay: Antifungal activity against Aspergillus terreus by microdilution test; type: functional
Candida albicans = assay: Antifungal activity against Candida albicans by microdilution test; type: functional
Aspergillus flavus = assay: Antifungal activity against Aspergillus flavus by microdilution test; type: functional
Cryptococcus neoformans = assay: Antifungal activity against Cryptococcus neoformans by microdilution test; type: functional
Exophiala spinifera = assay: Antifungal activity against Exophiala spinifera by microdilution test; type: functional
[1] = Antifungal activity against Exophiala xenobiotica by microdilution test; type: functional
Nakaseomyces glabratus = assay: Antifungal activity against Candida glabrata by microdilution test; type: functional
Pichia kudriavzevii = assay: Antifungal activity against Candida krusei by microdilution test; type: functional
Aspergillus niger = assay: Antifungal activity against Aspergillus niger by microdilution test; type: functional
[2] = tested on: Meyerozyma guilliermondii; assay: Antifungal activity against Candida guilliermondii by microdilution test; type: functional
[3] = Antifungal activity against Cladophialophora carrionii by microdilution test; type: functional
Candida parapsilosis = assay: Antifungal activity against Candida parapsilosis by microdilution test; type: functional; settings: for MIC: Lodderomyces parapsilosis
[4] = Antifungal activity against Exophiala oligosperma by microdilution test; type: functional
[5] = Antifungal activity against Aspergillus fumigates by microdilution test; type: functional
Aspergillus nidulans = assay: Antifungal activity against Aspergillus nidulans by microdilution test; type: functional, organism-based

Structure (SMILES)	Activity (Aspergillus terreus)	Activity (Candida albicans)	Activity (Aspergillus flavus)	Activity (Cryptococcus neoformans)	Activity (Exophiala spinifera)	Activity [1]	Activity (Nakaseomyces glabratus)	Activity (Pichia kudriavzevii)	Activity (Aspergillus niger)	MIC (Aspergillus terreus) [mg/L]	MIC (Candida albicans) [mg/L]	MIC (Aspergillus flavus) [mg/L]	MIC (Exophiala spinifera) [mg/L]	MIC [1] [mg/L]	MIC (Nakaseomyces glabratus) [mg/L]	MIC (Pichia kudriavzevii) [mg/L]	MIC (Aspergillus niger) [mg/L]	MIC [2] [mg/L]	MIC (Candida parapsilosis) [mg/L]	MIC [5] [mg/L]	also measured
O=C(CCl)Nc1ccccc1Sc1ccccc1	inactive	inactive	inactive	inactive	inactive	inactive	inactive	inactive	inactive												Activity [2]: inactive; Activity [3]: inactive; Activity (Candida parapsilosis): inactive; Activity [4]: inactive; Activity [5]: inactive; Activity (Aspergillus nidulans): inactive
CN(C)S(=O)(=O)c1ccc2c(c1)N(C(=O)CCl)c1ccccc1S2	inactive	inactive	inactive	inactive	inactive	inactive	inactive	inactive	inactive												Activity [2]: inactive; Activity [3]: inactive; Activity (Candida parapsilosis): inactive; Activity [4]: inactive; Activity [5]: inactive; Activity (Aspergillus nidulans): inactive
CN(C/C=C/C#CC(C)(C)C)Cc1cccc2ccccc12 [TERBINAFINE]										0.06 (≈ 0.206 µM)	0.5 (≈ 1.72 µM)	0.25 (≈ 0.858 µM)	0.06 (≈ 0.206 µM)	0.06 (≈ 0.206 µM)	0.06 (≈ 0.206 µM)	0.06 (≈ 0.206 µM)	0.125 (≈ 0.429 µM)	0.5 (≈ 1.72 µM)	0.06 (≈ 0.206 µM)	0.25 (≈ 0.858 µM)	MIC (Cryptococcus neoformans): 0.25 mg/L (≈ 0.858 µM); MIC [3]: 0.25 mg/L (≈ 0.858 µM); MIC [4]: 0.06 mg/L (≈ 0.206 µM)
Nc1nc(=O)[nH]cc1F [FLUCYTOSINE]										1 (≈ 7.75 µM)	2 (≈ 15.5 µM)	1 (≈ 7.75 µM)	2 (≈ 15.5 µM)	8 (≈ 62 µM)	1 (≈ 7.75 µM)	0.5 (≈ 3.87 µM)	0.5 (≈ 3.87 µM)	1 (≈ 7.75 µM)	0.5 (≈ 3.87 µM)	0.5 (≈ 3.87 µM)	MIC (Cryptococcus neoformans): 0.5 mg/L (≈ 3.87 µM); MIC [3]: 1 mg/L (≈ 7.75 µM); MIC [4]: 4 mg/L (≈ 31 µM)
CN(C)S(=O)(=O)c1ccc2c(c1)N(CCCN1CCC(CCO)CC1)c1ccccc1S2 [PIPOTIAZINE]										> 512	256 (≈ 538 µM)	> 512	256 (≈ 538 µM)	512 (≈ 1080 µM)	256 (≈ 538 µM)	512 (≈ 1080 µM)	> 512	256 (≈ 538 µM)	256 (≈ 538 µM)	> 512	MIC (Cryptococcus neoformans): 256 mg/L (≈ 538 µM); MIC [3]: 256 mg/L (≈ 538 µM); MIC [4]: 512 mg/L (≈ 1080 µM)
ClCCCN1c2ccccc2Sc2ccccc21	inactive	inactive	inactive	inactive	inactive	inactive	inactive	inactive	inactive												Activity [2]: inactive; Activity [3]: inactive; Activity (Candida parapsilosis): inactive; Activity [4]: inactive; Activity [5]: inactive; Activity (Aspergillus nidulans): inactive
O=C(CCCl)N1c2ccccc2Sc2ccccc21	inactive	inactive	inactive	inactive	inactive	inactive	inactive	inactive	inactive												Activity [2]: inactive; Activity [3]: inactive; Activity (Candida parapsilosis): inactive; Activity [4]: inactive; Activity [5]: inactive; Activity (Aspergillus nidulans): inactive
OCCC1CCNCC1	inactive	inactive	inactive	inactive	inactive	inactive	inactive	inactive	inactive												Activity [2]: inactive; Activity [3]: inactive; Activity (Candida parapsilosis): inactive; Activity [4]: inactive; Activity [5]: inactive; Activity (Aspergillus nidulans): inactive
CN(C)S(=O)(=O)c1ccc2c(c1)N(C(=O)CCCl)c1ccccc1S2	inactive	inactive	inactive	inactive	inactive	inactive	inactive	inactive	inactive												Activity [2]: inactive; Activity [3]: inactive; Activity (Candida parapsilosis): inactive; Activity [4]: inactive; Activity [5]: inactive; Activity (Aspergillus nidulans): inactive
CC(CN1c2ccccc2Sc2ccccc21)N(C)C (configuration not stated) [PROMETHAZINE]										256 (≈ 900 µM)	> 512	256 (≈ 900 µM)	256 (≈ 900 µM)	256 (≈ 900 µM)	> 512	256 (≈ 900 µM)	256 (≈ 900 µM)	512 (≈ 1800 µM)	512 (≈ 1800 µM)	256 (≈ 900 µM)	MIC (Cryptococcus neoformans): 256 mg/L (≈ 900 µM); MIC [3]: 512 mg/L (≈ 1800 µM); MIC [4]: 256 mg/L (≈ 900 µM)
CC(=O)N1c2ccccc2Sc2ccccc21	inactive	inactive	inactive	inactive	inactive	inactive	inactive	inactive	inactive												Activity [2]: inactive; Activity [3]: inactive; Activity (Candida parapsilosis): inactive; Activity [4]: inactive; Activity [5]: inactive; Activity (Aspergillus nidulans): inactive
O=C(CCl)N1c2ccccc2Sc2ccccc21										16 (≈ 58 µM)	32 (≈ 116 µM)	32 (≈ 116 µM)	16 (≈ 58 µM)	16 (≈ 58 µM)	> 512	32 (≈ 116 µM)	2 (≈ 7.25 µM)	32 (≈ 116 µM)	32 (≈ 116 µM)	16 (≈ 58 µM)	MIC (Cryptococcus neoformans): 8 mg/L (≈ 29 µM); MIC [3]: 4 mg/L (≈ 14.5 µM); MIC [4]: 16 mg/L (≈ 58 µM)
OC(Cn1cncn1)(Cn1cncn1)c1ccc(F)cc1F [FLUCONAZOLE]										16 (≈ 52.2 µM)	2 (≈ 6.53 µM)	16 (≈ 52.2 µM)	16 (≈ 52.2 µM)	16 (≈ 52.2 µM)	1 (≈ 3.27 µM)	64 (≈ 209 µM)	16 (≈ 52.2 µM)	4 (≈ 13.1 µM)	1 (≈ 3.27 µM)	16 (≈ 52.2 µM)	MIC (Cryptococcus neoformans): 8 mg/L (≈ 26.1 µM)
CCC(C)n1ncn(-c2ccc(N3CCN(c4ccc(OCC5COC(Cn6cncn6)(c6ccc(Cl)cc6Cl)O5)cc4)CC3)cc2)c1=O (configuration not stated) [ITRACONAZOLE]										0.125 (≈ 0.177 µM)	0.125 (≈ 0.177 µM)	0.125 (≈ 0.177 µM)	0.06 (≈ 0.085 µM)	0.06 (≈ 0.085 µM)	0.25 (≈ 0.354 µM)	0.06 (≈ 0.085 µM)	0.125 (≈ 0.177 µM)	0.5 (≈ 0.709 µM)	0.125 (≈ 0.177 µM)	0.25 (≈ 0.354 µM)	MIC (Cryptococcus neoformans): 0.25 mg/L (≈ 0.354 µM); MIC [3]: 0.06 mg/L (≈ 0.085 µM); MIC [4]: 0.125 mg/L (≈ 0.177 µM)
C[C@@H]1[C@H](O)[C@@H](C)/C=C/C=C/C=C/C=C/C=C/C=C/C=C/[C@H](O[C@@H]2O[C@H](C)[C@@H](O)[C@H](N)[C@@H]2O)C[C@@H]2O[C@](O)(C[C@@H](O)C[C@@H](O)[C@H](O)CC[C@@H](O)C[C@@H](O)CC(=O)O[C@H]1C)C[C@H](O)[C@H]2C(=O)O [AMPHOTERICIN B]										2 (≈ 2.16 µM)	0.5 (≈ 0.541 µM)	0.25 (≈ 0.271 µM)	1 (≈ 1.08 µM)	1 (≈ 1.08 µM)	0.25 (≈ 0.271 µM)	0.25 (≈ 0.271 µM)	0.5 (≈ 0.541 µM)	1 (≈ 1.08 µM)	0.5 (≈ 0.541 µM)	0.5 (≈ 0.541 µM)	
